Results on eight molecules are retold here after ChEMBL document CHEMBL6109074 (Bioorg Med Chem, 2025).

The term pIC50 denotes −log10 of the IC50, conventionally taken in molar units. Read a low pIC50 as a large IC50.

Experiment [1] in a line: Inhibition of HIF transcriptional activity in human HeLa cells harbouring HRE-luc preincubated for 1 hr under normoxic condition followed by 8 hrs incubation under hypoxic condition by luciferase reporter assay. In kind it is cell-based.
Experiment [2] deals with HeLa. As to the kind of experiment: Effect on HIF-1alpa protein expression in human HeLa cells at 1 to 100 uM incubated under hypoxia condition for 8 hrs by Western blot analysis. Particulars: dose 1-100 µM. The experiment is classed as functional, cell-based.
The target of experiment [3] is T1, Histone acetyltransferase p300/Hypoxia-inducible factor 1-alpha (Homo sapiens, UniProt Q09472+Q16665). The experiment in a line: Inhibition of HIF-1alpha(unknown origin)/human p300 CH1 domain (323 to 423 residues) PPI extracted from Escherichia coli incubated for 1 hr by SpectraMax iD5 MultiMode microplate reader analysis. The experiment is classed as protein-complex assay.

Experiment [4] deals with HeLa. As to the kind of experiment: Downregulation of BAX mRNA expression in human HeLa cells at 1 to 100 uM incubated under hypoxia condition for 8 hrs by RT-PCR analysis. In kind it is functional, cell-based. As to conditions: dose 1-100 µM.
Experiment [5] deals with HeLa. The experiment in a line: Effect on STAT3 mRNA expression in human HeLa cells at 1 to 100 uM incubated under hypoxia condition for 8 hrs by RT-PCR analysis. In kind it is functional, cell-based. Particulars: dose 1-100 µM.
Experiment [6] concerns HeLa. The experiment in a line: Effect on p53 mRNA expression in human HeLa cells at 1 to 100 uM incubated under hypoxia condition for 8 hrs by RT-PCR analysis. The experiment is classed as functional, cell-based. As to conditions: dose 1-100 µM.
Experiment [7] deals with HeLa. As to the kind of experiment: Downregulation of CAIX mRNA expression in human HeLa cells at 1 to 100 uM incubated under hypoxia condition for 8 hrs by real-time analysis. The experiment is classed as functional, cell-based. Particulars: dose 1-100 µM.
Experiment [8] has as its system HeLa. As to the kind of experiment: Downregulation of c-MYC mRNA expression in human HeLa cells at 1 to 100 uM incubated under hypoxia condition for 8 hrs by RT-PCR analysis. In kind it is functional, cell-based. As to conditions: dose 1-100 µM.
The test system of experiment [9] is HeLa. The experiment in a line: Effect on HIF-1alpa mRNA expression in human HeLa cells at 1 to 100 uM incubated under hypoxia condition for 8 hrs by real-time analysis. In kind it is functional, cell-based. As to conditions: dose 1-100 µM.
Experiment [10] has as its target T1, Histone acetyltransferase p300/Hypoxia-inducible factor 1-alpha. As to the kind of experiment: Inhibition of HIF-1alpha/p300 PPI (unknown origin). In kind it is protein-complex assay.
In experiment [11] the target is Histone acetyltransferase p300 (Homo sapiens, UniProt Q09472). The experiment in a line: Inhibition of p300 CH1 domain (unknown origin) by tryptophan fluorescence spectroscopy analysis.

The structures appear in SMILES notation. pIC50: −log10 of the molar value. Structures can show the parent of a compound that is named as a salt. The source made the active and inactive calls. The rule behind the calls is not given here.

T1 sequence (Q09472 whole entry, the tested form may be a part): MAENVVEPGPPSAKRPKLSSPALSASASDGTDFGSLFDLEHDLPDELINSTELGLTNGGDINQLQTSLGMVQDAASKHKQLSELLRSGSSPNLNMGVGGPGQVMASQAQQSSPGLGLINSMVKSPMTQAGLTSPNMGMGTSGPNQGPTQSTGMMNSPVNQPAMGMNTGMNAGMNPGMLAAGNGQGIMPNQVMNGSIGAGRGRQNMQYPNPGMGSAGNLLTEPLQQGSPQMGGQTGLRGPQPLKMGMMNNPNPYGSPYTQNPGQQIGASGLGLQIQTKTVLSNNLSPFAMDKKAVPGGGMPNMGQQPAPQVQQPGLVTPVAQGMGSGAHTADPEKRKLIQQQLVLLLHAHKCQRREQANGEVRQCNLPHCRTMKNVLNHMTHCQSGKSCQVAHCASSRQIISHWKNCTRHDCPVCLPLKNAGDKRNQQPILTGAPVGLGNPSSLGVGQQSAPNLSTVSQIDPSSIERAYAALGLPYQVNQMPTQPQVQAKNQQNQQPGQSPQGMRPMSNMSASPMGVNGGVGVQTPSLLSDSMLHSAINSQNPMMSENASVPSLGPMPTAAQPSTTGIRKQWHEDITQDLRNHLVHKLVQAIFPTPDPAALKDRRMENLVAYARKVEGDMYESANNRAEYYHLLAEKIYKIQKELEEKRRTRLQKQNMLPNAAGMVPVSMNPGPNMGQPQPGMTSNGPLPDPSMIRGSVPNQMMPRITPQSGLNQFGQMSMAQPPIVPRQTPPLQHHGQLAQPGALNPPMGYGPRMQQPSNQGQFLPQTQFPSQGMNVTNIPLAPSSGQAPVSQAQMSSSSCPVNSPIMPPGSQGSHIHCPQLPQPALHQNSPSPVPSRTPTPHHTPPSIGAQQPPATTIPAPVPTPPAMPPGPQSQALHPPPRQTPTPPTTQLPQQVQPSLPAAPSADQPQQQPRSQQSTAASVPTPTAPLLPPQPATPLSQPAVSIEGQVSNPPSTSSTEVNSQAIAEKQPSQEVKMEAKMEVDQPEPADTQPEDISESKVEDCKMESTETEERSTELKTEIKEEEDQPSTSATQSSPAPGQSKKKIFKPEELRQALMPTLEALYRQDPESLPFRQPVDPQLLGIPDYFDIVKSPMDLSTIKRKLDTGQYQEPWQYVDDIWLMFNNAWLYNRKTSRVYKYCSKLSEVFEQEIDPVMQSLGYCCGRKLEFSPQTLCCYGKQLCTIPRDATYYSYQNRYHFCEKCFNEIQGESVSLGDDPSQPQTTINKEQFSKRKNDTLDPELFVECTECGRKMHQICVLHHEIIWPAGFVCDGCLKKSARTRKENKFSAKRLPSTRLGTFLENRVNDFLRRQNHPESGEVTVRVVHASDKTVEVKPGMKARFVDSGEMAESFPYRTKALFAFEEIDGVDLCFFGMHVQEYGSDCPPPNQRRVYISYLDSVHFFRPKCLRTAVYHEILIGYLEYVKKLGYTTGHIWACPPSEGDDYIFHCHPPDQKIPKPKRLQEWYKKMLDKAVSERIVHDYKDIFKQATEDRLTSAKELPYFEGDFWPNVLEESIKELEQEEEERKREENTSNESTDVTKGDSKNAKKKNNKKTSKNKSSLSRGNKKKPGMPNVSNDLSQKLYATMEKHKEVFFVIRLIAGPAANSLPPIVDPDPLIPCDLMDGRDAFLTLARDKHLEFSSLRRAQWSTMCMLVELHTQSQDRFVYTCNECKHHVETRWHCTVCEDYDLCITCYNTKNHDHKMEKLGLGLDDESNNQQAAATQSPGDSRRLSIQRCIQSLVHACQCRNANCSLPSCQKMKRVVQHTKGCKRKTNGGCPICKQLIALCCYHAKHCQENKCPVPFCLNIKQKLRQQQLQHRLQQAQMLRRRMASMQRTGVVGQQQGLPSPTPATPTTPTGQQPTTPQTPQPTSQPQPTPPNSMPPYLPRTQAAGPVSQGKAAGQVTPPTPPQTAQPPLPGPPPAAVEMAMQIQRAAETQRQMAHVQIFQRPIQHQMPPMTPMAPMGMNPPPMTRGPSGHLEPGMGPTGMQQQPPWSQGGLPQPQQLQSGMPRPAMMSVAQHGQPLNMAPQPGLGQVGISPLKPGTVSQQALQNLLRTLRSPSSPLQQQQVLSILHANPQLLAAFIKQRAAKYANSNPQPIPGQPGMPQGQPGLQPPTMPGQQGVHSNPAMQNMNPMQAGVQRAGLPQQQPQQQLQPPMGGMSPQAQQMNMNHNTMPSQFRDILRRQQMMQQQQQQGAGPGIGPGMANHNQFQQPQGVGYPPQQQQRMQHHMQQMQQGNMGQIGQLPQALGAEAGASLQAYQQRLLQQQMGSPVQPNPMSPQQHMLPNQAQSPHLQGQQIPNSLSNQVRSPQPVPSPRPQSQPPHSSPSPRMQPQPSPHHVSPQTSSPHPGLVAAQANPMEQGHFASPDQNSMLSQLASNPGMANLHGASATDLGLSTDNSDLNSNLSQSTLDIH
T1 sequence (Q16665 whole entry, the tested form may be a part): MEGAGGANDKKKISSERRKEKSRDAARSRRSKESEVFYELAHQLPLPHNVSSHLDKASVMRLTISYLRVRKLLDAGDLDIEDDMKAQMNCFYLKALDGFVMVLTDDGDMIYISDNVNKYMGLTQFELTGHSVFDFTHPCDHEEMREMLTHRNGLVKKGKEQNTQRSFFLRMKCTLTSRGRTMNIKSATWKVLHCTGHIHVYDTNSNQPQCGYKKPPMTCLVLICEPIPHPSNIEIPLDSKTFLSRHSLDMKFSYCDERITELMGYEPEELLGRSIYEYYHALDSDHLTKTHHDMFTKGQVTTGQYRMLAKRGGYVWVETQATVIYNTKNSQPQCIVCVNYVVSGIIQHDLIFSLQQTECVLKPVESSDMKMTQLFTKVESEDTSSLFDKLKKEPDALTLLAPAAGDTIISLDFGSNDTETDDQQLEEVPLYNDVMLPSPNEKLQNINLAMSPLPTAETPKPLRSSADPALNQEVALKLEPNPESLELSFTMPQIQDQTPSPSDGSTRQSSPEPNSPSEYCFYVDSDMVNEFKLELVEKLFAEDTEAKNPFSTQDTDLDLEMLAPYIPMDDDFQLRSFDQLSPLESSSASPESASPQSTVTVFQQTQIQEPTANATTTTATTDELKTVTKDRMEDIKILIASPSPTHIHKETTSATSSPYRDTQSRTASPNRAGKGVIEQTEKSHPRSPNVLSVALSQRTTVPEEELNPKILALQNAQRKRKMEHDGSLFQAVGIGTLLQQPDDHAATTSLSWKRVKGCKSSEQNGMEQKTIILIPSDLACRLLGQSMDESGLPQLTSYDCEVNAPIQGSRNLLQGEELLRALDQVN
Sequence of Histone acetyltransferase p300 (Q09472 whole entry, the tested form may be a part): as the sequence (Q09472 whole entry, the tested form may be a part) above

In turn, `OCCN1CCN(CCCN2c3ccccc3Sc3ccc(Cl)cc32)CC1` [PERPHENAZINE] gave a pIC50 in experiment [1] of 4.84. Besides, in the experiment on HeLa [2], the outcome was inactive.
In the case of `COC1=C(N)C(=O)c2nc(-c3nc(C(=O)O)c(C)c(-c4ccc(OC)c(OC)c4O)c3N)ccc2C1=O` [STREPTONIGRIN], the pIC50 in experiment [3] was 5.86.
As to `O=C(Nc1ccc([N+](=O)[O-])cc1Cl)c1cc(Cl)ccc1O`, the outcome with HeLa [4], in the experiment with HeLa [7] and in the experiment with HeLa [8] was Active. The result in the experiment on HeLa [5], in the experiment with HeLa [6], in the experiment on HeLa [2] and with HeLa [9] was inactive.
On to `[N-]=[N+]=Nc1cc(O)c(C(=O)Nc2ccc([N+](=O)[O-])cc2Cl)cc1Cl`, for which the outcome in the experiment on HeLa [2] was inactive.
In experiment [1], `C[C@@]12C(=O)OC(=O)[C@]1(C)[C@H]1CC[C@@H]2O1` [CANTHARIDIN] showed a pIC50 of 5.25.
Turning to `COC(=O)c1ccc(O)c(NC(=O)COc2ccc(C34CC5CC(CC(C5)C3)C4)cc2)c1`, in experiment [10], the pIC50 was 5.36.
As for `CC(C)C[C@@H]1NCCN([C@@H](CC(C)C)C(=O)N2CCN([C@@H](CCC(N)=O)C(N)=O)C(=O)[C@@H]2C)C1=O`, the pIC50 in experiment [11] is 6.28; in experiment [3] it was 7.29.
In experiment [1], `Fc1ccc(C(c2ccc(F)cc2)N2CCN(C/C=C/c3ccccc3)CC2)cc1` [FLUNARIZINE HYDROCHLORIDE] gave a pIC50 of 5.05.
